{"source": "patent US11564959B2", "about": "(SHISEIDO COMPANY, LTD., priority 2016, dated 2023)", "molecules": {"B1": {"name": "PDGF-BB: recombinant cytokine protein purchased from R&D Co. (protein, UniProt P01127 82-190, looked up)", "Platelet-derived growth …": "SLGSLTIAEPAMIAECKTRTEVFEISRRLIDRTNANFLVWPPCVEVQRCSGCCNNRNVQCRPTQVQLRPVQVRKIEIVRKKPIFKKATVTLEDHLACKCETVAAARPVT"}}, "key": {"PDGF-BB": {"tested_on": "PDGF-BB", "assay": "Membrane array of cytokines in epidermis protein extract of three-dimensional skin model", "assay_type": "cell-based", "conditions": "CGS27023A 10^−5 M and BIPBIPU 10^−5 M added together, 2nd, 4th and 7th day, data not shown", "text": "The epidermis was collected from the skin model on the 2nd day, 4th day and 7th day of culturing, and RIPA buffer by Nacalai was used to prepare a protein extract. Using a membrane array kit (ab134002) by Abcam Co., the amounts of different cytokines in the protein extract were detected using a LAS-1000UVmini by Fujifilm and digitized with the included software, and a graph was drawn (data not shown). The cytokines whose amounts increased compared to the control were selected as candidate cytokines that promote type V collagen expression. Three cytokines including PDGF-BB were selected as candidate cytokines."}, "laminin 511 [1]": {"tested_on": "laminin 511", "conditions": "CGS27023A 10 μM and BIPBIPU 10 μM added together, 4 days of culturing, abdominal skin", "protocol": "The taken samples were cultured for 4 days in culture medium containing the MMP9 inhibiting agent CGS270234 (10 μM) and the heparanase inhibiting agent BIPBIU (10 μM)."}, "MCSP-positive cells [2]": {"tested_on": "MCSP-positive cells", "assay": "Tissue culture of human skin with MMP and heparanase inhibiting agents, MCSP staining", "assay_type": "cell-based", "conditions": "CGS27023A 10 μM and BIPBIPU 10 μM added together, 4 days of culturing, abdominal skin", "text": "DAPI was also used for nuclear staining. […] DAPI was also used for nuclear staining."}, "MCSP-positive cells [3]": {"tested_on": "MCSP-positive cells", "assay": "Ex vivo human skin organ culturing with HEI, MCSP staining", "assay_type": "cell-based", "conditions": "0.01% HEI, 5 days, abdominal skin"}, "filaggrin": {"tested_on": "filaggrin", "assay": "Ex vivo human skin organ culturing with HEI, filaggrin staining", "assay_type": "cell-based", "conditions": "0.01% HEI, 5 days", "method": "(§1) The taken samples were cultured for 5 days in culture medium containing 0.01% HEI. […] The excess moisture adhering to the cultured skin sample was wiped off with a Kimtowel, and after allowing it to stand for 5 minutes, a Vapometer was used for TEWL measurement, and a Corneometer was used to measure the stratum corneum moisture content.\nDAPI was also used for nuclear staining."}, "[4]": {"assay": "In vivo human application test of HEI solution on the face, TEWL and stratum corneum moisture", "conditions": "1.5% HEI solution on one side of the face, twice a day for 4 weeks, water on other side", "method": "Next, 20 males from 20 to 50 years of age were asked to apply a 1.5% HEI solution on one side of the face and water on the other side of the face, twice a day for 4 weeks. Before application, 2 weeks after application and 4 weeks after application, the TEWL was measured using a Vapometer, and a Corneometer was used to measure the stratum corneum moisture content."}, "human skin": {"tested_on": "human skin", "assay": "Ex vivo human skin organ culturing with HEI, TEWL and stratum corneum moisture", "assay_type": "cell-based", "conditions": "0.01% HEI, 5 days", "method": "as §1"}, "recombinant human MMP-9": {"biological_target": "T1, recombinant human MMP-9 (Homo sapiens, UniProt P14780)", "T1 construct": "purchased Enzo Life Sciences Inc", "T1 sequence (P14780 107-444 limits assumed)": "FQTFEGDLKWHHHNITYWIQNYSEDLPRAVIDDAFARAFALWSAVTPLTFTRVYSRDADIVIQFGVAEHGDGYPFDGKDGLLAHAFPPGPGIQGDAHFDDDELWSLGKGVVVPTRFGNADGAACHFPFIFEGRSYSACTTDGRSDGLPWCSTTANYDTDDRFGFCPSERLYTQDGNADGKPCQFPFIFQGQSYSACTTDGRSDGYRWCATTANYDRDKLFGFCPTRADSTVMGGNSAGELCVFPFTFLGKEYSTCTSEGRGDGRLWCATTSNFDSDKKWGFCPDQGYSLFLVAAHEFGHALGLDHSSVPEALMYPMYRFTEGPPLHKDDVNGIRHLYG", "assay": "MMP-9 colorimetric drug discovery kit assay", "assay_type": "biochemical", "conditions": "0.0001%, 0.001% and 0.01% HEI, FIG. 9", "method": "An MMP9 assay was carried out using a Matrix Metalloproteinase-9 (MMP-9) colorimetric drug discovery kit (Enzo Life Sciences Inc.). Specifically, HEI was added to a recombinant human MMP-9 enzyme solution to 0.0001%, 0.001% and 0.01% concentration. After mixing with chromogenic MMP-9 substrate, the absorbance at 412 nm was measured every other minute. The MMP-9 inhibition rate (%) for HEI was calculated from the slope of the absorbance (OD/min)."}, "heparanase": {"biological_target": "T2, heparanase (Homo sapiens, UniProt Q9Y251)", "T2 construct": "endogenous in cells; host or cells: A431 cell lysate", "T2 sequence (Q9Y251 158-543 limits assumed)": "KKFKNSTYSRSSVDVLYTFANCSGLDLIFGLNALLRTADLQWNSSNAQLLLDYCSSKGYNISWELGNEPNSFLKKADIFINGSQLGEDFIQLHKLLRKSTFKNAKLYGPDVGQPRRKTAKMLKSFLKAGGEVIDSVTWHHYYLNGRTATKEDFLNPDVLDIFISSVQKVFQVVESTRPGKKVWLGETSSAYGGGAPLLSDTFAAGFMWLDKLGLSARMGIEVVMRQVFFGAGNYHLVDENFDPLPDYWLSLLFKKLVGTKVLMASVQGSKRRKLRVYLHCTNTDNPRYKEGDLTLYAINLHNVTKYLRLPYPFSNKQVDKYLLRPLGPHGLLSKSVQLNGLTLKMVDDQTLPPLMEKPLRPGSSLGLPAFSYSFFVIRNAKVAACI", "T2 sequence (Q9Y251 36-109 limits assumed)": "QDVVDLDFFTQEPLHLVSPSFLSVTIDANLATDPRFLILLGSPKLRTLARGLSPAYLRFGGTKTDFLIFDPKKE", "assay": "Heparanase assay on heparan sulfate immobilization plate with A431 cell lysate", "assay_type": "biochemical", "conditions": "0.0005%, 0.005% or 0.05% HEI, 3 hours at 37° C., FIG. 8", "method": "A heparanase assay was carried out using a heparan sulfate immobilization plate, as described in Behzad F, et al., Analytical Biochemistry, 320, pp. 207-213, 2003. Specifically, heparan sulfate (Seikagaku, Tokyo, Japan) was reacted with photobiotin to prepare biotinylated heparan sulfate. The biotinylated heparan sulfate was fixed onto a carbohydrate-binding surface plate (Coastar, Tokyo, Japan). A431 cell lysate (50 μg/ml) and 0% HEI, 0.0005% HEI, 0.005% HEI or 0.05% HEI were added onto the biotinylated heparan sulfate immobilized plate, incubated for 3 hours at 37° C., and then rinsed with PBS-T. Next, peroxidase-avidin (Vector Laboratories, Inc. CA, USA) was incubated at 37° C. for 1 hour. A 3,3′,5,5′-tetramethylbenzidine (TMB) solution (Bio-Rad, Tokyo, Japan) was added, and the plate was further incubated at room temperature for 30 minutes. The absorbance at 450 nm was measured to determine the heparanase inhibiting effect."}, "laminin 511 [5]": {"tested_on": "laminin 511", "assay": "Ex vivo human skin organ culturing with HEI, laminin 511 staining", "conditions": "0.01% HEI, 5 days, abdominal skin"}, "[6]": {"tested_on": "gene COL5A1 for type V collagen", "assay": "COL5A1 expression in human fibroblasts after addition of recombinant cytokine", "assay_type": "cell-based", "conditions": "normal human fibroblasts, 24 hours", "method": "The selected recombinant cytokine proteins were purchased from R&D Co. Normal human fibroblasts from skin harvested from 14-month-old children were cultured for 24 hours in 10% FBS-added DMEM, and the medium in the cultured product was exchanged with another medium added to DMEM medium containing 25% serum for a prescribed concentration of each cytokine, after which culturing was continued for 24 hours. After culturing, the cells were collected and the mRNA was extracted with Trizol. The cDNA was rapidly prepared, and the aforementioned primers were used for real-time PCR to evaluate the gene expression levels of the gene COL5A1 for type V collagen (FIG. 15)."}}, "note": "Counter-ions that a name gives are not always drawn.", "data": [{"molecule": "COc1ccc(S(=O)(=O)N(Cc2cccnc2)[C@@H](C(=O)NO)C(C)C)cc1", "note": "[CGS27023A, N-hydroxy-2(R)-[[(4-methoxy-phenyl)sulfonyl](3-picolyl)amino]-3-methylbutanamide hydrochloride]", "values": [{"measurement": "amount of PDGF-BB in epidermis protein extract compared to the control", "setting": "PDGF-BB", "result": "increased"}, {"measurement": "laminin 511 in the basal membrane after tissue culture", "setting": "laminin 511 [1]", "result": "augmentation of laminin 511"}, {"measurement": "MCSP-positive cells after tissue culture", "setting": "MCSP-positive cells [2]", "result": "maintenance or augmentation of MCSP"}]}, {"molecule": "O=C(Nc1ccc(-c2nc3ccccc3[nH]2)cc1)Nc1ccc(-c2nc3ccccc3[nH]2)cc1", "note": "[BIPBIPU, 1-[4-(1H-benzoimidazol-2-yl)phenyl]-3-[4-(1H-benzoimidazol-2-yl)phenyl]urea]", "values": [{"measurement": "amount of PDGF-BB in epidermis protein extract compared to the control", "setting": "PDGF-BB", "result": "increased"}, {"measurement": "MCSP-positive cells after tissue culture", "setting": "MCSP-positive cells [2]", "result": "maintenance or augmentation of MCSP"}]}, {"molecule": "O=C1NCCN1CCO", "note": "[HEI, 1-(2-Hydroxyethyl)-2-imidazolidinone]", "values": [{"measurement": "MCSP-positive cell count on the basal membrane after culturing", "setting": "MCSP-positive cells [3]", "result": "maintained"}, {"measurement": "filaggrin protein expression", "setting": "filaggrin", "result": "tendency for increase"}, {"measurement": "TEWL", "setting": "[4]", "result": "decreased"}, {"measurement": "stratum corneum moisture content", "setting": "[4]", "result": "increased"}, {"measurement": "stratum corneum moisture content", "setting": "human skin; Corneometer", "result": "increased"}, {"measurement": "TEWL", "setting": "human skin; Vapometer", "result": "decreased"}, {"measurement": "MMP9 inhibition", "setting": "recombinant human MMP-9", "result": "inhibit MMP9 activity in a dose-dependent manner"}, {"measurement": "heparanase inhibiting effect", "setting": "heparanase", "result": "inhibit heparanase activity in a dose-dependent manner"}, {"measurement": "amount of laminin 511 after culturing", "setting": "laminin 511 [5]", "result": "maintained"}]}, {"molecule": "B1", "values": [{"measurement": "type V collagen production (COL5A1 gene expression)", "setting": "[6]", "result": "significantly increased"}]}]}
